Reference: BigSolDB 2.1

With `CC(=O)N1CCN(c2ccc(OC[C@@H]3CO[C@@](Cn4ccnc4)(c4ccc(Cl)cc4Cl)O3)cc2)CC1` (racemic) the solubility (mole fraction) (in PEG-200, 298.2 K) was 0.00611, the solubility (mole fraction) (in PEG-200, 303.2 K) was 0.00718 and the solubility (mole fraction) (in PEG-200, 308.2 K) was 0.00908. It also gave a solubility (mole fraction) (in PEG-200, 313.2 K) of 0.0118, a solubility (mole fraction) (in PEG-200, 318.2 K) of 0.0144 and a solubility (mole fraction) (in water, 298.2 K) of 4e-07. It also gave a solubility (mole fraction) (in water, 303.2 K) of 5e-07, a solubility (mole fraction) (in water, 308.2 K) of 5e-07 and a solubility (mole fraction) (in water, 313.2 K) of 7e-07. It also gave a solubility (mole fraction) (in water, 318.2 K) of 9e-07.
